In US20250325552A1, “SUBSTITUTED THIADIAZOLYL DERIVATIVES AS DNA POLYMERASE THETA INHIBITORS” (IDEAYA Biosciences, Inc., priority 2020, published 2025):
pIC50: −log10 of the molar value.

Each compound was assayed against Polθ theta (1-899) (hPolQ) (Homo sapiens (Human), UniProt O75417) (assay: Biological Assay 1: Polθ ATPase activity, NADH oxidation-coupled enzymatic assay (10 nM enzyme, 30 min)). Details: Polθ (1-899) 10 nM, 100 μM ATP, 300 nM dT50 ssDNA; Examples 1 to 268; read-out: ATPase NADH coupling:Standard Screening:hPolQ IC50.
Sequence of Polθ theta (1-899) (hPolQ) (O75417 1-899): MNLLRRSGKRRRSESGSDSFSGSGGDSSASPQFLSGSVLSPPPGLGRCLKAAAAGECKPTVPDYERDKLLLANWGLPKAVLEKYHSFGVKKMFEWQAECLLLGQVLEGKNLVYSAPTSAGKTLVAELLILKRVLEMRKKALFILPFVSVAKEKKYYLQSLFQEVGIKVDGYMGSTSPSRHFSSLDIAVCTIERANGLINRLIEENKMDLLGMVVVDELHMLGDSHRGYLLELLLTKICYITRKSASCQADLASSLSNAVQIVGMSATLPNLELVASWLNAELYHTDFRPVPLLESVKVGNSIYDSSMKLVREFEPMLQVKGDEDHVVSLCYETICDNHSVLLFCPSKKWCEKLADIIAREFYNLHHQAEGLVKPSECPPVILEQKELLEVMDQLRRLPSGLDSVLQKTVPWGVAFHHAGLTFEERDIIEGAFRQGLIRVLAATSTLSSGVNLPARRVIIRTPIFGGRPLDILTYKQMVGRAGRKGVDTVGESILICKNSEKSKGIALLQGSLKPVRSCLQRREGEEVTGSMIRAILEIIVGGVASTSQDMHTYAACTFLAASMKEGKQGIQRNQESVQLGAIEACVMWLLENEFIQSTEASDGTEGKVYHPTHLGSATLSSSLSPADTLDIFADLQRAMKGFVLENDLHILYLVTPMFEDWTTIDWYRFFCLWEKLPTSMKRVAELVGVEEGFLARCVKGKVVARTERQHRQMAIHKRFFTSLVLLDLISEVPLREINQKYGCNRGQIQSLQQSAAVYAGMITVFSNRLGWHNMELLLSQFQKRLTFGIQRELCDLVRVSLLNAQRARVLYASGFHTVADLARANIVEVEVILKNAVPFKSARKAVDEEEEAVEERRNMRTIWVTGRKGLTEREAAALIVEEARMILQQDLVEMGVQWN
Type: biochemical
In short: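 ATP turnover was coupled to NADH oxidation and followed at 340 nm every minute for 30 min. Enzyme (residues 1-899, 10 nM) sat with compound for 15 min at room temperature before an equal-volume addition of 100 μM ATP plus 300 nM dT50 ssDNA. Progress-curve slopes from 10-point dilutions were fitted by a four-parameter model.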

| Compound | pIC50 |
| --- | --- |
| COc1cccc(F)c1-c1cccnc1C(=O)Nc1nnc(OCc2ccc(Cl)cn2)s1 [Example 19, N-(5-((5-chloropyridin-2-yl)methoxy)-1,3,4-thiadiazol-2-yl)-3-(2-fluoro-6-methoxyphenyl)picolinamide] | 5.00 to 6.00 |
| COc1cnc(Cl)cc1-c1cc(C)ncc1C(=O)Nc1nnc(OC[C@H]2CC[C@@H](F)CC2)s1 [Example 196, 2′-chloro-N-(5-(((1s,4s)-4-fluorocyclohexyl)methoxy)-1,3,4-thiadiazol-2-yl)-5′-methoxy-6-methyl-(4,4′-bipyridine)-3-carboxamide] | ≥ 6.70 |
| COc1cnc(Cl)cc1-c1cc(C)ncc1C(=O)Nc1nnc(OC[C@H]2COC[C@@H]2C)s1 (single isomer, unassigned) [Example 268] | ≥ 6.70 |
| COc1cccc(F)c1-c1cncnc1C(=O)Nc1nnc(OCc2ccc(CO)cn2)s1 [Example 37, 5-(2-fluoro-6-methoxyphenyl)-N-(5-((5-(hydroxymethyl)pyridin-2-yl)methoxy)-1,3,4-thiadiazol-2-yl)pyrimidine-4-carboxamide] | ≥ 6.70 |
| COc1cccc(F)c1-c1cc(C)ncc1C(=O)Nc1nnc(OCc2ccc(OC3COC3)cn2)s1 [Example 38, 4-(2-fluoro-6-methoxyphenyl)-6-methyl-N-(5-((5-(oxetan-3-yloxy)pyridin-2-yl)methoxy)-1,3,4-thiadiazol-2-yl)pyridine-3-carboxamide] | ≥ 6.70 |
| COc1cnc(Cl)cc1-c1cc(C)ncc1C(=O)Nc1nnc(OCC2COC3(CCC3)C2)s1 (centres unmarked) [Example 224, N-(5-((5-oxaspiro(3.4)octan-7-yl)methoxy)-1,3,4-thiadiazol-2-yl)-2′-chloro-5′-methoxy-6-methyl-(4,4′-bipyridine)-3-carboxamide] | ≥ 6.70 |
| COc1cnc(Cl)cc1-c1cc(C)ncc1C(=O)Nc1nnc(OCC2COC(C)(C)C2)s1 (stereo in doubt) [Example 189, (S)-2′-chloro-N-(5-((5,5-dimethyltetrahydrofuran-3-yl)methoxy)-1,3,4-thiadiazol-2-yl)-5′-methoxy-6-methyl-(4,4′-bipyridine)-3-carboxamide] | ≥ 6.70 |
| COc1ccccc1-c1cc(C)ncc1C(=O)Nc1nnc(OCc2nccc3[nH]ncc23)s1 [Example 10, N-(5-((1H-pyrazolo(4,3-c)pyridin-4-yl)methoxy)-1,3,4-thiadiazol-2-yl)-4-(2-methoxyphenyl)-6-methylnicotinamide] | 6.00 to 6.30 |
| Cc1cc(-c2cc(Cl)ncc2OC(F)F)c(C(=O)Nc2nnc(OC[C@H]3CC[C@H](O)CC3)s2)cn1 [Example 243, 2′-chloro-5′-(difluoromethoxy)-N-(5-(((1r,4r)-4-hydroxycyclohexyl)methoxy)-1,3,4-thiadiazol-2-yl)-6-methyl-(4,4′-bipyridine)-3-carboxamide] | ≥ 6.70 |
| COc1cnc(Cl)cc1-c1cc(C)ncc1C(=O)Nc1nnc(OCC2CCCC2O)s1 (centres unmarked) [Example 261, 2′-chloro-N-(5-((2-hydroxycyclopentyl)methoxy)-1,3,4-thiadiazol-2-yl)-5′-methoxy-6-methyl-(4,4′-bipyridine)-3-carboxamide] | ≥ 6.70 |
| COc1cccc(COc2nnc(NC(=O)c3cnc(C)cc3-c3c(F)cccc3OC)s2)n1 [Example 91, 4-(2-fluoro-6-methoxyphenyl)-N-(5-((6-methoxypyridin-2-yl)methoxy)-1,3,4-thiadiazol-2-yl)-6-methylpyridine-3-carboxamide] | ≥ 6.70 |
| COc1cnc(Cl)cc1-c1cc(C)ncc1C(=O)Nc1nnc(OCc2ccc3c(n2)OCCO3)s1 [Example 51, 2′-chloro-N-(5-((2,3-dihydro-[1,4]dioxino[2,3-b]pyridin-6-yl)methoxy)-1,3,4-thiadiazol-2-yl)-5′-methoxy-6-methyl-[4,4′-bipyridine]-3-carboxamide] | ≥ 6.70 |
| COc1cnc(Cl)cc1-c1cc(C)ncc1C(=O)Nc1nnc(OCc2ccc([C@@H](C)O)cn2)s1 [Example 69, (R)-2′-chloro-N-(5-((5-(1-hydroxyethyl)pyridin-2-yl)methoxy)-1,3,4-thiadiazol-2-yl)-5′-methoxy-6-methyl-(4,4′-bipyridine)-3-carboxamide] | ≥ 6.70 |
| COc1cccc(F)c1-c1cc(C)ncc1C(=O)Nc1nnc(OCc2ccc(C(C)(C)O)cn2)s1 [Example 33, 4-(2-fluoro-6-methoxyphenyl)-N-(5-((5-(2-hydroxypropan-2-yl)pyridin-2-yl)methoxy)-1,3,4-thiadiazol-2-yl)-6-methylnicotinamide] | ≥ 6.70 |
| COc1cccc(F)c1-c1cc(C)ncc1C(=O)Nc1nnc(OCc2ccc(C(C)(C)C#N)cn2)s1 [Example 88, N-(5-((5-(2-cyanopropan-2-yl)pyridin-2-yl)methoxy)-1,3,4-thiadiazol-2-yl)-4-(2-fluoro-6-methoxyphenyl)-6-methylnicotinamide] | ≥ 6.70 |
| COc1ccc(F)cc1-c1cc(C)ncc1C(=O)Nc1nnc(OCc2ccc(C(C)(C)O)cn2)s1 [Example 63, 4-(5-fluoro-2-methoxyphenyl)-N-(5-((5-(2-hydroxypropan-2-yl)pyridin-2-yl)methoxy)-1,3,4-thiadiazol-2-yl)-6-methylnicotinamide] | ≥ 6.70 |

| Compound | pIC50 |
| --- | --- |
| COc1ccc(Cl)cc1-c1cnncc1C(=O)Nc1nnc(OCC23CCC(F)(CC2)CC3)s1 [Example 142, 5-(5-chloro-2-methoxyphenyl)-N-(5-((4-fluorobicyclo(2.2.2)octan-1-yl)methoxy)-1,3,4-thiadiazol-2-yl)pyridazine-4-carboxamide] | ≥ 6.70 |
| COc1cccc(F)c1-c1cc(C)ncc1C(=O)Nc1nnc(OCC2CCCn3nccc32)s1 (centres unmarked) [Example 135, 4-(2-fluoro-6-methoxyphenyl)-6-methyl-N-(5-(4H,5H,6H,7H-pyrazolo(1,5-a)pyridin-4-ylmethoxy)-1,3,4-thiadiazol-2-yl)pyridine-3-carboxamide] | ≥ 6.70 |
| COc1cccc(F)c1-c1cc(C)ncc1C(=O)Nc1nnc(OCc2ccc(CC3COC3)cn2)s1 [Example 54, 4-(2-fluoro-6-methoxyphenyl)-6-methyl-N-(5-((5-(oxetan-3-ylmethyl)pyridin-2-yl)methoxy)-1,3,4-thiadiazol-2-yl)nicotinamide] | ≥ 6.70 |
| COc1cnc(Br)cc1-c1cc(C)ncc1C(=O)Nc1nnc(OC[C@H]2CC[C@H](O)CC2)s1 [Example 247, 2′-bromo-N-(5-(((1r,4r)-4-hydroxycyclohexyl)methoxy)-1,3,4-thiadiazol-2-yl)-5′-methoxy-6-methyl-(4,4′-bipyridine)-3-carboxamide] | ≥ 6.70 |
| COc1ccccc1-c1cc(C)ncc1C(=O)Nc1nnc(OCc2cccc(CO)n2)s1 [Example 6, N-(5-((6-(hydroxymethyl)pyridin-2-yl)methoxy)-1,3,4-thiadiazol-2-yl)-4-(2-methoxyphenyl)-6-methylpyridine-3-carboxamide] | ≥ 6.70 |
| COCc1cc(-c2cc(Cl)ncc2OC)c(C(=O)Nc2nnc(OC[C@@H]3COCCO3)s2)cn1 [Example 216, (S)—N-(5-((1,4-dioxan-2-yl)methoxy)-1,3,4-thiadiazol-2-yl)-2′-chloro-5′-methoxy-6-(methoxymethyl)-(4,4′-bipyridine)-3-carboxamide] | ≥ 6.70 |
| COc1cnc(Cl)cc1-c1cc(C)ncc1C(=O)Nc1nnc(OCC23CC(C(C)(C)O)(C2)C3)s1 [Example 143, 2′-chloro-N-(5-((3-(2-hydroxypropan-2-yl)bicyclo(1.1.1)pentan-1-yl)methoxy)-1,3,4-thiadiazol-2-yl)-5′-methoxy-6-methyl-(4,4′-bipyridine)-3-carboxamide] | ≥ 6.70 |
| N-(5-(((S)-1,4-dioxan-2-yl)methoxy)-1,3,4-thiadiazol-2-yl)-3′-fluoro-5′-methoxy-2′,6-dimethyl-(4,4′-bipyridine)-3-carboxamide [Example 241] | ≥ 6.70 |
| COc1cnc(C)cc1-c1cc(C)ncc1C(=O)Nc1nnc(OCC2(F)CC2)s1 [Example 203, N-(5-((1-fluorocyclopropyl)methoxy)-1,3,4-thiadiazol-2-yl)-5′-methoxy-2′,6-dimethyl-(4,4′-bipyridine)-3-carboxamide] | ≥ 6.70 |
| COc1cccc(F)c1-c1cc(C)ncc1C(=O)Nc1nnc(OCc2cnc(C(C)(C)O)cn2)s1 [Example 119, 4-(2-fluoro-6-methoxyphenyl)-N-(5-((5-(2-hydroxypropan-2-yl)pyrazin-2-yl)methoxy)-1,3,4-thiadiazol-2-yl)-6-methylnicotinamide] | 6.30 to 6.70 |
| Cc1cc(-c2c(F)cccc2OC(F)F)c(C(=O)Nc2nnc(OCc3ccc(C(C)(C)O)cn3)s2)cn1 [Example 50, 4-(2-(difluoromethoxy)-6-fluorophenyl)-N-(5-((5-(2-hydroxypropan-2-yl)pyridin-2-yl)methoxy)-1,3,4-thiadiazol-2-yl)-6-methylnicotinamide] | ≥ 6.70 |
| COc1cnc(Br)cc1-c1cc(C)ncc1C(=O)Nc1nnc(OC[C@H]2CCOC2)s1 (single isomer, unassigned) [Example 244] | ≥ 6.70 |
| COc1cnc(Cl)cc1-c1cc(C)ncc1C(=O)Nc1nnc(OC[C@@H]2COC3(CCC3)C2)s1 (single isomer, unassigned) [Example 226] | ≥ 6.70 |
| COc1cccc(F)c1-c1cc(C)ncc1C(=O)Nc1nnc(OCc2ccc([S@](C)(=N)=O)cc2)s1 [Example 114, 4-(2-fluoro-6-methoxyphenyl)-6-methyl-N-(5-((4-((R)—S-methylsulfonimidoyl)benzyl)oxy)-1,3,4-thiadiazol-2-yl)nicotinamide] | ≥ 6.70 |
| COc1cnc(Cl)cc1-c1cc(C)ncc1C(=O)Nc1nnc(OC[C@H]2CC[C@H](O)C2)s1 (single isomer, unassigned) [Example 208] | ≥ 6.70 |
| COc1cccc(F)c1-c1cc(C)ncc1C(=O)Nc1nnc(OCc2cnc([C@H](C)O)cn2)s1 [Example 110, 4-(2-fluoro-6-methoxyphenyl)-N-(5-((5-((S)-1-hydroxyethyl)pyrazin-2-yl)methoxy)-1,3,4-thiadiazol-2-yl)-6-methylnicotinamide] | ≥ 6.70 |
